What was measured:
[1] = system: PANC-1 (prancreatic carcinoma) cell line; assay: CellTiter-Glo luminescent cell viability assay, PANC-1; type: cell-based; settings: Homo sapiens; for viability at 4 µM: PANC-1, 4 μM; for viability at 4 µM / viability at 10 µM: 72 h, % of signal of diluent-treated cultures; for viability at 10 µM: PANC-1, 10 μM; for EC50: PANC-1 cell line, 72 h incubation, CellTiter-Glo, read-out: EC50 (growth inhibition assay of PANC-1 cell line)
Summary of the method: (§1)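 Luminescent signal, normalised to diluent-treated cultures, defines % viability; EC50 is the concentration lowering it to 50%. Cells had been exposed to compound for 72 h at 37 °C in medium with 10% FBS, at a constant H2O or DMSO percentage.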

[2] = system: HCT-116 (colorectal carcinoma) cell line; assay: CellTiter-Glo luminescent cell viability assay, HCT-116; type: cell-based, human; settings: Homo sapiens; for viability at 4 µM: HCT-116, compound at 4 μM; for viability at 4 µM / viability at 10 µM: 72 h; for viability at 10 µM: HCT-116, compound at 10 μM; for EC50: HCT-116 cell line, 72 h incubation, CellTiter-Glo, read-out: EC50, growth inhibition of HCT-116
Summary of the method: (§2)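 72 h compound exposure, 37 °C, 5% CO2, 10% FBS medium; ATP luminescence read after 30 min RT equilibration. Viability as % of H2O/DMSO diluent control; EC50 = dose giving 50% of control signal. Duplicate points minimum.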

[3] = system: Huh7 (hepatocellular carcinoma) cell line; assay: CellTiter-Glo luminescent cell viability assay, Huh7; type: cell-based, human; settings: Homo sapiens, Huh-7; for viability at 4 µM: Huh7, compound at 4 μM; for viability at 4 µM / viability at 10 µM: 72 h; for viability at 10 µM: Huh7, compound at 10 μM; for EC50: Huh7 cell line, 72 h incubation, CellTiter-Glo, read-out: EC50, growth inhibition of Huh7
Summary of the method: as §1

[4] = system: A375 (malignant melanoma) cell line; assay: CellTiter-Glo luminescent cell viability assay, A375; type: cell-based, human; settings: Homo sapiens, A-375; for viability at 4 µM: A375, compound at 4 μM; for viability at 4 µM / viability at 10 µM: 72 h; for viability at 10 µM: A375, compound at 10 μM; for EC50: A375 cell line, 72 h incubation, CellTiter-Glo, read-out: EC50, growth inhibition of A375
Summary of the method: as §2

[5] = system: HepG2 (hepatocellular carcinoma) cell line; assay: CellTiter-Glo luminescent cell viability assay, HepG2; type: cell-based, human; settings: Homo sapiens; for viability at 4 µM / viability at 10 µM: HepG2, HepG, 72 h; for viability at 4 µM: compound at 4 μM; for viability at 10 µM: compound at 10 μM; for EC50: HepG2 cell line, 72 h incubation, CellTiter-Glo, read-out: EC50, growth inhibition of HepG2
Summary of the method: as §1

[6] = system: 786-O (renal adenocarcinoma) cell line; assay: CellTiter-Glo luminescent cell viability assay, 786-O; type: cell-based, human; settings: Homo sapiens, 786-0; for viability at 4 µM / viability at 10 µM: 786-O, 72 h; for viability at 4 µM: compound at 4 μM; for viability at 10 µM: compound at 10 μM; for EC50: 786-O cell line, 72 h incubation, CellTiter-Glo, read-out: EC50, growth inhibition of 786-O
Summary of the method: as §2

[7] = system: MOLM-14 (acute myeloid leukemia) cell line; assay: CellTiter-Glo luminescent cell viability assay, MOLM-14; type: cell-based, human; settings: Homo sapiens; for viability at 4 µM: MOLM-14, compound at 4 μM; for viability at 4 µM / viability at 10 µM: 72 h; for viability at 10 µM: MOLM-14, compound at 10 μM; for EC50: MOLM-14 cell line, 72 h incubation, CellTiter-Glo, read-out: EC50, growth inhibition of MOLM-14
Summary of the method: as §1

EC50 [2] [µM] | EC50 [3] [µM] | EC50 [4] [µM] | EC50 [5] [µM] | EC50 [6] [µM] | EC50 [7] [µM] | Structure (SMILES) | viability at 4 µM [1] [%] | viability at 10 µM [1] [%] | viability at 4 µM [2] [%] | viability at 10 µM [2] [%] | viability at 4 µM [3] [%] | viability at 10 µM [3] [%] | viability at 4 µM [4] [%] | viability at 10 µM [4] [%] | viability at 4 µM [5] [%] | viability at 10 µM [5] [%] | viability at 4 µM [6] [%] | viability at 10 µM [6] [%] | viability at 4 µM [7] [%] | viability at 10 µM [7] [%] | other results
0.5 to 5 | 0.5 to 5 | 0.5 to 5 | 0.5 to 5 | 5 to 10 | 5 to 10 | COc1ccc(CNc2nc3ccccc3c(N3CCC(NC(C)(C)C)CC3)c2C#N)cc1 [Compound 3290CN, 2-(4-methoxybenzylamino)-3-cyano-4-[4-(tert-butylamino)piperidin-1-yl]quinoline] | 95.7 | 38.3 | 43.8 | 0.7 | 80.2 | 1 | 57.6 | 0.8 | 75.5 | 0.7 | 74.1 | 2.7 | 76.4 | 7.4 | EC50 [1]: 5 to 10 µM
0.5 to 5 | 0.5 to 5 | 0.5 to 5 | 0.5 to 5 | 5 to 10 | 5 to 10 | CC(C)(C)NC1CCN(c2c(C#N)c(NCc3ccc(F)cc3)nc3ccccc23)CC1 [Compound 240CN, 2-(4-fluorobenzylamino)-3-cyano-4-[4-(tert-butylamino)piperidin-1-yl]quinoline] | 98.3 | 30 | 55.2 | 0.3 | 80 | 0.4 | 64.5 | 0.3 | 86.7 | 0.4 | 77.2 | 0.7 | 100 | 0.5 | EC50 [1]: 5 to 10 µM
0.5 to 5 | 0.5 to 5 | 0.5 to 5 | 0.5 to 5 | 0.5 to 5 | 5 to 10 | CC(C)(C)NC1CCN(c2c(C#N)c(Nc3ccccc3C(F)(F)F)nc3ccccc23)CC1 [Compound 3254CN, 2-(2-trifluoromethylphenylamino)-3-cyano-4-[4-(tert-butylamino)piperidin-1-yl]quinoline] | 78.4 | 3 | 0.3 | 0.2 | 34.2 | 0.3 | 0.4 | 0.2 | 6.9 | 0.2 | 6.3 | 0.3 | 81.4 | 0.3 | EC50 [1]: 5 to 10 µM
0.5 to 5 | 0.5 to 5 | 0.5 to 5 | 0.5 to 5 | 0.5 to 5 | 0.5 to 5 | N#Cc1c(NCc2ccc(Cl)cc2)nc2ccccc2c1N1CCC(NC2CCCC2)CC1 [Compound 3178CN, 2-(4-chlorobenzylamino)-3-cyano-4-[4-(cyclopentylamino)piperidin-1-yl]quinoline] | 85.8 | 0.8 | 0.3 | 0.4 | 58.8 | 0.6 | 0.4 | 0.5 | 6 | 0.5 | 1.3 | 0.5 | 90.4 | 0.7 | EC50 [1]: 5 to 10 µM

Further lines, the molecule ahead of its results:

Structure (SMILES) | EC50 [2] [µM] | EC50 [3] [µM] | EC50 [4] [µM] | EC50 [5] [µM] | EC50 [6] [µM] | EC50 [7] [µM] | viability at 4 µM [1] [%] | viability at 10 µM [1] [%] | viability at 4 µM [2] [%] | viability at 10 µM [2] [%] | viability at 4 µM [3] [%] | viability at 10 µM [3] [%] | viability at 4 µM [4] [%] | viability at 10 µM [4] [%] | viability at 4 µM [5] [%] | viability at 10 µM [5] [%] | viability at 4 µM [6] [%] | viability at 10 µM [6] [%] | viability at 4 µM [7] [%] | viability at 10 µM [7] [%] | other results
N#Cc1c(NCc2ccc(Cl)cc2)nc2ccccc2c1N1CCCC(N2CCCC2)C1 (centres unmarked) [Compound 176CN, 2-(4-chlorobenzylamino)-3-cyano-4-[3-(pyrrolidin-1-yl)piperidin-1-yl]quinoline] | – | – | – | – | – | – | 93.2 | 70.6 | 84.3 | 42.7 | 96.4 | 64.7 | 114 | 65.4 | 93 | 60.2 | 89.8 | 39.3 | 95.6 | 75.2 | –
CCN(CC)C1CCN(c2c(C#N)c(NCc3ccc(Cl)cc3)nc3ccccc23)CC1 [Compound 184CN, 2-(4-chlorobenzylamino)-3-cyano-4-[4-(diethylamino)piperidin-1-yl]quinoline] | 5 to 10 | 5 to 10 | 0.5 to 5 | 5 to 10 | 5 to 10 | 5 to 10 | 91.8 | 46.6 | 65.7 | 0.9 | 74.7 | 0.7 | 53.7 | 0.8 | 72.4 | 0.8 | 72.6 | 1.1 | 95.1 | 0.7 | EC50 [1]: 5 to 10 µM
CN1CCC(NC2CCCN(c3c(C#N)c(NCc4ccc(Cl)cc4)nc4ccccc34)C2)CC1 (centres unmarked) [Compound 3162CN, 2-(4-chlorobenzylamino)-3-cyano-4-{3-[(1-methylpiperidin-4-yl)amino]piperidin-1-yl}quinoline] | 0.5 to 5 | 0.5 to 5 | 0.5 to 5 | 0.5 to 5 | 0.5 to 5 | 0.5 to 5 | 51.6 | 0.4 | 0.3 | 0.2 | 0.5 | 0.2 | 0.4 | 0.2 | 0.3 | 0.2 | 0.5 | 0.3 | 0.5 | 0.3 | –
N#Cc1c(NCc2ccc(Cl)cc2)nc2ccccc2c1N1CCCC(NC2CCCC2)C1 (centres unmarked) [Compound 162CN, 2-(4-chlorobenzylamino)-3-cyano-4-[3-(cyclopentylamino)piperidin-1-yl]quinoline] | 0.5 to 5 | 0.5 to 5 | 0.5 to 5 | 0.5 to 5 | 0.5 to 5 | 0.5 to 5 | 75.3 | 0.8 | 0.8 | 0.1 | 37.1 | 0.2 | 0.4 | 0.2 | 0.3 | 0.1 | 12 | 0.2 | 45.6 | 0.3 | –
CCN(CC)C1CCCN(c2c(C#N)c(NCc3ccc(Cl)cc3)nc3ccccc23)C1 (centres unmarked) [Compound 160CN, 2-(4-chlorobenzylamino)-3-cyano-4-[3-(diethylamino)piperidin-1-yl]quinoline] | – | – | – | – | – | – | 99.6 | 75.3 | 86.4 | 47.3 | 89.5 | 62.3 | 86.6 | 47.9 | 94.5 | 48.3 | 94.9 | 40 | 106 | 94.5 | –
